The subject of experiment [1] is T. brucei brucei Lister 427. In words: Trypanosome replication assay. In kind it is cell-based, Trypanosoma brucei brucei. Particulars: 48 h, values ±7%. On the procedure:
Then 2 μL of DMSO (control) or different concentrations of drugs prepared from 200× DMSO stocks were added to the cultures. Cells were incubated at 37° C. for 48 h and counted with a hemocytometer. […] All experiments were repeated thrice in independent studies where each dose was administered in duplicate (total n=6). HepG2 Cell Toxicity Assay. The 384 well MTT cytotoxicity assay is a modification of the MTT method described by Ferrari et al. optimized for 384-well throughput, with modifications described below.

For experiment [2], the system named is T. cruzi. Briefly: T. cruzi growth inhibition. The format is cell-based, Trypanosoma cruzi.
Experiment [3] has as its system L. major promastigote. Briefly: L. major promastigote assay. In kind it is cell-based.
Experiment [4] relates to L. major amastigote. In words: L. major amastigote assay. The format is cell-based.
Experiment [5] deals with P. falciparum D6. In words: P. falciparum D6 assay. The following applies: strain D6. The format is cell-based.
Experiment [6] deals with P. falciparum W2. In words: P. falciparum W2 assay. In kind it is cell-based. The following applies: strain W2, read-out: P. falciparum W2 (EC50).
Experiment [7] deals with P. falciparum C235. Briefly: P. falciparum C235 assay. The format is cell-based. The following applies: strain C235, read-out: P. falciparum C235 (EC50).
Where [8] appears, read: concentration giving 50% inhibition of growth of T brucei brucei Lister 427 cells, read-out: Tbb EC50.
The mark [9] stands for this setting: Trypanosoma brucei, concentration giving 50% inhibition of growth of T brucei brucei Lister 427 cells, read-out: Tbb EC50.

The values below come from patent US20150259331A1, “PROTOZOAN PARASITE GROWTH INHIBITORS” (Northeastern University, priority 2014, published 2015).

Like-named read-outs stand apart in the source and are kept apart here. Marks after values point to notes of the source that are not given here.

`CC(C)S(=O)(=O)CCNCc1ccc(-c2ccc3ncnc(Nc4ccc(OCc5cccc(F)c5)c(Cl)c4)c3c2)o1` [Compound 4, reference compound]: the EC50 in experiment [1] (setting [8]) is 0.48 µM.
As for `O=C(c1ccc(-c2ccc3ncnc(Nc4ccc(OCc5cccc(F)c5)c(Cl)c4)c3c2)cc1)N1CCCCC1` [Compound 23l, (4-(4-((3-Chloro-4-((3-fluorobenzyl)oxy)phenyl)amino)-quinazolin-6-yl)phenyl)(piperidin-1-yl)methanone], the EC50 is 0.94 µM in experiment [1] (setting [9]); greater than 50 µM in experiment [2] (Trypanosoma cruzi); 1 µM in experiment [3] (Leishmania major); 2.9 µM in experiment [4] (Leishmania major); 250 nM in experiment [5] (Plasmodium falciparum); 880 nM in experiment [6] (Plasmodium falciparum). The EC50 in experiment [7] (Plasmodium falciparum) turned out to be 360 nM.
For `COc1ccc(Nc2ncnc3ccc(-c4ccc(S(=O)(=O)N5CCN(C)CC5)cc4)cc23)cc1Cl` [NEU-766], the EC50 is 0.78 µM in experiment [1] (setting [8]); greater than 50 µM in experiment [2]; 5.9 µM in experiment [3]; greater than 15 µM in experiment [4]; 33 nM in experiment [5]; 210 nM in experiment [6]. Further, in experiment [7], the EC50 turned out to be 58 nM.
For `Cc1cc(-c2ccc3ncnc(Nc4ccc(OCc5cccc(F)c5)c(Cl)c4)c3c2)cnc1N1CCOCC1` [NEU-632], the EC50 is 1 µM in experiment [1] (setting [8]); 3.6 µM in experiment [3]; 1.1 µM in experiment [4]; 260 nM in experiment [5]; 540 nM in experiment [6]; 360 nM in experiment [7]. The “T. cruzi % inh at 10 μM” value in experiment [2] amounted to 49%.
In the case of `O=C(c1cccc(-c2ccc3ncnc(Nc4ccc(OCc5cccc(F)c5)c(Cl)c4)c3c2)c1)N1CCCC1` [NEU-618], the EC50 is 0.52 µM in experiment [1] (setting [8]); greater than 15 µM in experiment [3]; greater than 15 µM in experiment [4]; 69 nM in experiment [5]; 90 nM in experiment [6]; 90 nM in experiment [7]. Further, in experiment [2], the “T. cruzi % inh at 10 μM” value is recorded as “(7)* %”.
For `Oc1ccc(-c2ccc3ncnc(Nc4ccc(OCc5cccc(F)c5)c(Cl)c4)c3c2)cc1` [Compound 10i, 4-(4-((3-Chloro-4-((3-fluorobenzyl)oxy)phenyl)amino)-quinazolin-6-yl)phenol], in experiment [1] (Trypanosoma brucei, read-out: Tbb EC50, concentration giving 50% inhibition of growth of T brucei brucei Lister 427 cells), the EC50 is 6.45 µM.
As for `Fc1cccc(COc2ccc(Nc3ncnc4ccc(-c5cccc(CN6CCOCC6)c5)cc34)cc2Cl)c1` [Compound 23c], the EC50 in experiment [1] (setting [8]) stood at 0.36 µM; in experiment [2], 2.4 µM; in experiment [3], 3.3 µM; in experiment [4], 3 µM; in experiment [5] it was 190 nM; in experiment [6], 350 nM. In addition, the EC50 in experiment [7] is 290 nM.
As to `Fc1cccc(COc2ccc(Nc3ncnc4ccc(-c5cccc(-n6cccn6)c5)cc34)cc2Cl)c1` [NEU-709], the EC50 in experiment [1] (setting [8]) is 7.5 µM; in experiment [3], greater than 15 µM; in experiment [4], greater than 15 µM; in experiment [5] it was 19000 nM; in experiment [6] it was 19000 nM; in experiment [7], 19000 nM. For the same compound, the “T. cruzi % inh at 10 μM” value in experiment [2] was “(10)* %”.
On to `O=C(NC1CC1)c1cccc(-c2ccc3ncnc(Nc4ccc(OCc5cccc(F)c5)c(Cl)c4)c3c2)c1` [Compound 10e, 3-(4-((3-Chloro-4-((3-fluorobenzyl)oxy)phenyl)amino)-quinazolin-6-yl)-N-cyclopropylbenzamide], for which the EC50 in experiment [1] (setting [9]) was 4.5 µM.
As for `CN1CCN(c2cccc(-c3ccc4ncnc(Nc5ccc(OCc6cccc(F)c6)c(Cl)c5)c4c3)c2)CC1` [NEU-714], the EC50 is 0.55 µM in experiment [1] (setting [8]); 1.9 µM in experiment [3]; 4.2 µM in experiment [4]; 44 nM in experiment [5]; 59 nM in experiment [6]; 110 nM in experiment [7]. Further, in experiment [2], the “T. cruzi % inh at 10 μM” value was “(72)* %”.
As for `CC(C)(C)OC(=O)N1CCN(c2ccc(-c3ccc4ncnc(Nc5ccc(OCc6cccc(F)c6)c(Cl)c5)c4c3)cc2)CC1` [NEU-634], the EC50 came to 6 µM in experiment [1] (setting [8]); 3.1 µM in experiment [3]; 3.1 µM in experiment [4]; 860 nM in experiment [5]; 3200 nM in experiment [6]; 1100 nM in experiment [7]. Besides, the “T. cruzi % inh at 10 μM” value in experiment [2] was “(8)* %”.
On to `CCCS(=O)(=O)CCNCc1ccc(-c2ccc3ncnc(Nc4ccc(OCc5cccc(F)c5)c(Cl)c4)c3c2)o1` [Compound 3, reference compound], for which, in experiment [1] (setting [8]), the EC50 stood at 0.43 µM.
Take `CS(=O)(=O)CCNCc1ccc(-c2ccc3ncnc(Nc4ccc(OCc5ccccc5)c(Br)c4)c3c2)o1` [Compound 7, reference compound]: in experiment [1] (setting [8]), the EC50 came out at 0.56 µM.
As for `CCNC(=O)c1ccc(-c2ccc3ncnc(Nc4ccc(OCc5cccc(F)c5)c(Cl)c4)c3c2)cc1F` [Compound 10c, 4-(4-4-((3-Chloro-4-((3-fluorobenzyl)oxy)phenyl)amino)-quinazolin-6-yl)-N-ethyl-2-fluorobenzamide], the EC50 in experiment [1] (setting [8]) is 3.85 µM.
For `Cc1nnc(-c2cccc(-c3ccc4ncnc(Nc5ccc(OCc6cccc(F)c6)c(Cl)c5)c4c3)c2)o1` [Compound 10d, N-(3-Chloro-4-((3-fluorobenzyl)oxy)phenyl)-6-(3-(5-methyl-1,3,4-oxadiazol-2-1)phenyl)quinazolin-4-amine], the EC50 in experiment [1] (setting [8]) amounted to 4.21 µM.
Turning to `Fc1cccc(COc2ccc(Nc3ncnc4ccc(-c5cccc(N6CCNCC6)c5)cc34)cc2Cl)c1` [NEU-711], the EC50 in experiment [1] (setting [8]) was determined as 0.25 µM; in experiment [2], 2.2 µM.
Take `CC(C)(C)NS(=O)(=O)c1ccccc1-c1ccc2ncnc(Nc3ccc(OCc4cccc(F)c4)c(Cl)c3)c2c1` [Compound 10w, N-(tert-Butyl)-2-(4-((3-chloro-4-((3-fluorobenzyl)oxy)-phenyl)amino)quinazolin-6-yl)benzenesulfonamide]: the EC50 came out at 4.66 µM in experiment [1] (setting [9]); 4.7 µM in experiment [1] (concentration giving 50% inhibition of growth of T brucei brucei Lister 427 cells, listed as NEU-620, read-out: Tbb EC50); 6.4 µM in experiment [2] (Trypanosoma cruzi).
For the compound `Fc1cccc(COc2ccc(Nc3ncnc4ccc(-c5ccccc5Oc5ccccc5)cc34)cc2Cl)c1` [Compound 10g, N-(3-Chloro-4-((3-fluorobenzyl)oxy)phenyl)-6-(2-phenoxyphenyl)quinazolin-4-amine], the EC50 in experiment [1] (setting [9]) came out at 5.3 µM.
As to `Cc1ccc(-c2ccc3ncnc(Nc4ccc(OCc5cccc(F)c5)c(Cl)c4)c3c2)c2ccccc12` [Compound 10b, N-(3-Chloro-4-((3-fluorobenzyl)oxy)phenyl)-6-(4-methylnaphthalen-1-yl)quinazolin-4-amine], the EC50 in experiment [1] (setting [9]) came out at 2.27 µM.
On the same count and under the same terms, the result for `Fc1cccc(COc2ccc(Nc3ncnc4ccc(-c5cccc6ncccc56)cc34)cc2Cl)c1` [Compound 10f, N-(3-Chloro-4-((3-fluorobenzyl)oxy)phenyl)-6-(quinolin-5-yl)quinazolin-4-amine] reads 4.53 µM.
With `Fc1cccc(COc2ccc(Nc3ncnc4ccc(-c5cc6ccccc6s5)cc34)cc2Cl)c1` [Compound 10h, 6-(Benzo[b]thiopen-2-yl)-N-(3-chloro-4-((3-fluorobenzyl)-oxy)phenyl)quinazolin-4-amine], the EC50 in experiment [1] (setting [8]) was found to be 5.98 µM.
On the same count and under the same terms, next, `CS(=O)(=O)CCN(Cc1ccccc1)Cc1ccc(-c2ccc3ncnc(Nc4ccc(OCc5cccc(F)c5)c(Cl)c4)c3c2)o1` [Compound 9, reference compound]: 1.51 µM.
In the case of `O=c1[nH]cc(-c2ccc3ncnc(Nc4ccc(OCc5cccc(F)c5)c(Cl)c4)c3c2)c(=O)[nH]1` [Compound 10j], in experiment [1] (setting [8]), the EC50 came out at 22.6 µM.
As for `Cl.O=S(=O)(c1ccc(-c2ccc3ncnc(Nc4ccc(OCc5ccccc5F)c(Cl)c4)c3c2)cc1)N1CCOCC1` [Compound 20i], the “T. cruzi % inh at 10 μM” value in experiment [2] is listed as 10%.
